The text below walks through data of patent US8946474B2, “Polymorphic form of a calcimimetic compound” (LEO Pharma A/S, priority 2010, dated 2015).

Structures are written as SMILES. Values after ≈ are worked out from the molar mass of the structure shown. Values joined by “and” are separate entries in the source; they are usually repeats but may differ in a detail not shown here. Equal values may be shown once.

What all share (type): physicochemical
Data set [1] in a line: Aqueous solubility as a function of pH. As to conditions: for Solubility / solubility at 24 h: room temperature (25° C.), shaken 24 hours; for solubility at 24 h: 25 °C, thermodynamic from solid. Here is the method:
In addition to the characterizing analyses by XRPD, XRC, DSC, ATR-FTIR and SS NMR discussed hereinabove, the solubility of {4-[(1R,3S)-3-((R)-1-Naphthalen-1-yl-ethylamino)-cyclopentyl]-phenoxy}-acetic acid Form C and X has been determined as function of pH and in MeOH.
The aqueous solubility of Form C and Form X was determined as a function of pH at 25° C. in 0.1N HCl (pH 1.0) and in Sorensen phosphate buffers at pH 2.0, 4.0, 6.0 and 8.0. For each pH value two individual determinations were made. Form C or Form X was weighed out (11 mg for pH 1, 4 mg for pH 2-8) in scintillation vials and 4 ml 0.1N HCl or buffer was added. The vials were shaken for 24 hours at 25° C. After 24 hours it was checked that the vial still contained undissolved material. The suspensions were filtered through a 0.45 μm filter, which was first saturated with app. 0.5 ml filtrate. The resulting filtrates were diluted and analyzed by HPLC vs. a standard curve.

Data set [2] in a line: Stress stability test for solid state transformation. To be noted: 60° C., 60° C./75% relative humidity and 80° C./75% relative humidity; 4 weeks. Here is the method: Polymorph Form C, Form X and mixtures of the two polymorphic forms C+X have all been tested at different conditions of temperature and relative humidity for signs of solid state transformation. The stress stability test was carried out at three sets of conditions: 60° C., 60° C./75% relative humidity and 80° C./75% relative humidity, and samples were analyzed after 1, 2 and 4 weeks, i.e. after 7, 14 and 28 days.
One 1.8 ml amber screw top vial (27267-U, Supelco) containing between 50 and 100 mg {4-[(1R,3S)-3-((R)-1-Naphthalen-1-yl-ethylamino)-cyclopentyl]-phenoxy}-acetic acid was tested per individual set of conditions. The vials to be tested at 60° C. were closed with a PTFE lined black polypropylene solid cap (27416, Supelco) and placed in a thermostated heating cabinet. The vials to be tested at 60° C./75% relative humidity and 80° C./75% relative humidity were placed uncapped in a desiccator containing a saturated NaCl solution. The desiccator was subsequently placed in a thermostatted heating cabinet.
The samples were analyzed at 1, 2 and 4 weeks for • 1. Visual appearance • 2. HPLC assay and impurities • 3. Polymorph characterization

Data set [3] in a line: Thermo gravimetric analysis (TGA). To be noted: TGA trail of Graph 4b (Form X), ±2° C. Here is the method: TGA experiments were conducted using a Perkin Elmer Pyris 1 TGA instrument. About 10-20 mg of sample was loaded into a ceramic pan for the measurements. The sample temperature was ramped from 25 to 350° C. at 10° C./min. Nitrogen was used as the purge gas at a flow rate of 40 mL/min.

For `C[C@@H](N[C@H]1CC[C@@H](c2ccc(OCC(=O)O)cc2)C1)c1cccc2ccccc12` [Form C, {4-[(1R,3S)-3-((R)-1-Naphthalen-1-yl-ethylamino)-cyclopentyl]-phenoxy}-acetic acid], the Solubility is 1.225 mg/mL (≈ 3150 µM) in data set [1] (pH 1.0 (0.1N HCl)); 0.394 mg/mL and 0.329 mg/mL in data set [1] (pH 2.0 (Sorensen phosphate buffer)); 0.052 mg/mL and 0.053 mg/mL in data set [1] (pH 4.0 (Sorensen phosphate buffer)); 0.043 mg/mL (≈ 110 µM) in data set [1] (pH 6.0 (Sorensen phosphate buffer)); 0.055 mg/mL (≈ 141 µM) in data set [1] (pH 8.0 (Sorensen phosphate buffer)). Also, the “4 week stress stability test without any solid state transformation” value in data set [2] is reported as “passed”.
In the case of `C[C@@H](N[C@H]1CC[C@@H](c2ccc(OCC(=O)O)cc2)C1)c1cccc2ccccc12` [{4-[(1R,3S)-3-((R)-1-Naphthalen-1-yl-ethylamino)-cyclopentyl]-phenoxy}-acetic acid], in data set [2], the “4 week stress stability test without any solid state transformation” value was “passed”. Besides, in data set [3], the “stable towards degradation at temperatures below” value was “below 255 °C”.
In the case of `C[C@@H](N[C@H]1CC[C@@H](c2ccc(OCC(=O)O)cc2)C1)c1cccc2ccccc12` [Form X, {4-[(1R,3S)-3-((R)-1-Naphthalen-1-yl-ethylamino)-cyclopentyl]-phenoxy}-acetic acid], the solubility at 24 h in data set [1] (0.1N HCl, pH 1, simulated gastric fluid, pH 1.0 (0.1N HCl)) is 1.24 mg/mL (≈ 3190 µM); in data set [1] (Sorensen phosphate buffer, pH 2, aqueous buffer, pH 2.0 (Sorensen phosphate buffer)), 0.551 mg/mL (≈ 1410 µM); in data set [1] (Sorensen phosphate buffer, pH 4, aqueous buffer, pH 4.0 (Sorensen phosphate buffer)) it was 0.086 mg/mL (≈ 221 µM); in data set [1] (Sorensen phosphate buffer, pH 6, aqueous buffer, pH 6.0 (Sorensen phosphate buffer)), 0.078 mg/mL (≈ 200 µM); in data set [1] (Sorensen phosphate buffer, pH 8, aqueous buffer, pH 8.0 (Sorensen phosphate buffer)), 0.08 mg/mL (≈ 205 µM). The “solubility compared to Form C” value in data set [1] (room temperature) was “higher”. The “4 week stress stability test without any solid state transformation” value in data set [2] is “passed”.

In general, Solubility refers to the concentration that dissolves in the medium under given conditions. Read a low Solubility as little dissolved substance. Broadly, the solubility is the concentration that dissolves in the medium under given conditions. Read a high solubility as a readily soluble substance.
